# Key:
# Format in all cases: cell-based
# [1] = test system: anti-GluR3 antibody-evoked currents, mouse cortical neurons in culture; test: Block of anti-GluR3 antibody-evoked whole cell currents; conditions: for blockage of anti-GluR3 antibody-evoked currents: CNQX 40 μM, MK-801 10 μM, peptides 0.5 mg/ml incubated with serum or IgG for 15 minutes
# [2] = test system: glutamate receptors, fetal mouse cortical neurons in culture; test: Whole cell currents evoked in voltage-clamped neurons in culture; conditions: 100 μM NMDA with 1 μM glycine, -75 mV, 1 mM MgCl2
# Procedure: To examine functional consequences of antibody binding to glutamate receptors, electrophysiological methods were used to record whole cell currents from mouse cortical neurons in culture. Neuronal cultures from fetal (E14-16) mouse cortical and hippocampal structures were prepared on poly-L-lysine-coated 35 mm "FALCON" dishes according to G. Skeen et al., 44 Molec. Pharmacol. 443 (1993), hereby incorporated by reference. Cultures were fed every other day using a growth medium consisting of DMEM, 10% horse serum, 30 mM glucose, and 0.5 mM glutamine. Arabinosylcytosine (ARA-C) was added for 1 day during the first week in culture to suppress growth of non-neuronal cells. Electrophysiological experiments were performed on 2-5 week old cultures at room temperature. External solution consisted of 145 mM NaCl, 1.5 mM KCl, 1 mM CaCl2, 1 mM MgCl2, 10 mM Na-HEPES, 10 mM glucose, 30 mM sucrose at pH 7.4, 320 mOsm. Internal solution consisted of 153 mM CsCl, 10 mM Cs-HEPES, 4 mM MgCl2, 5 mM EGTA at pH 7.35, 300 mOsm. Solutions were designed for measurement of predominantly sodium inward currents and to block NMDA receptor currents when neurons are voltage clamped at -75 mV. […]
# Currently, the composition of native GluR's and GABAR's is unknown and the potential diversity of native receptors is immense. […] Five cells are recorded for each paradigm and antibody. […]
# [3] = test system: currents evoked by serum from a Rasmussen's encephalitis patient, fetal mouse cortical neurons; test: Block of whole cell currents evoked by serum from a Rasmussen's encephalitis patient
# Procedure: To examine functional consequences of antibody binding to glutamate receptors, electrophysiological methods were used to record whole cell currents from mouse cortical neurons in culture. Neuronal cultures from fetal (E14-16) mouse cortical and hippocampal structures were prepared on poly-L-lysine-coated 35 mm "FALCON" dishes according to G. Skeen et al., 44 Molec. Pharmacol. 443 (1993), hereby incorporated by reference. Cultures were fed every other day using a growth medium consisting of DMEM, 10% horse serum, 30 mM glucose, and 0.5 mM glutamine. Arabinosylcytosine (ARA-C) was added for 1 day during the first week in culture to suppress growth of non-neuronal cells. Electrophysiological experiments were performed on 2-5 week old cultures at room temperature. External solution consisted of 145 mM NaCl, 1.5 mM KCl, 1 mM CaCl2, 1 mM MgCl2, 10 mM Na-HEPES, 10 mM glucose, 30 mM sucrose at pH 7.4, 320 mOsm. Internal solution consisted of 153 mM CsCl, 10 mM Cs-HEPES, 4 mM MgCl2, 5 mM EGTA at pH 7.35, 300 mOsm. Solutions were designed for measurement of predominantly sodium inward currents and to block NMDA receptor currents when neurons are voltage clamped at -75 mV. […] To block other currents, 0.2-1 μM tetrodotoxin (TTX), 10 μM picrotoxin, 10 nM strychnine were added to the external solution. External solution was perfused continuously at about 2 ml/min. […]
Compound,"Antibody-evoked currents reduced to % of control ([1]; 40 μM, rabbit serum 1:8, 6 cells)",blockage of anti-GluR3 antibody-evoked currents [1],current evoked by NMDA [2],blockage of currents evoked by serum from a Rasmussen's encephalitis patient [3]
"N#Cc1cc2c(cc1[N+](=O)[O-])=NC(=O)C(=O)N=2 [CNQX, 6-cyano-7-nitro-quinoxaline-2,3-dione, reference compound]",4±20 % of control,"rapid, reversible, and voltage independent",,
"C[C@]12N[C@H](Cc3ccccc31)c1ccccc12 [MK-801, reference compound]",,had no effect,,
"CN[C@H](CC(=O)O)C(=O)O [NMDA, N-methyl-D-aspartate]",,,No current was evoked,
"GluR3A: synthetic peptide, amino acids 245-274 of GluR3 (SEQ ID NO:1) (NNENPMVQQFIQRWVRLDEREFPEAKNAP)",,did not block antibody-evoked currents,,does not

# Source: US6010854A, “Autoantibodies to neurotransmitter receptors” (University of Utah Research Foundation, priority 1997, dated 2000)
